Source: publication PMC4683934, “Effect of an ethanol extract of Descurainia sophia seeds on Phase I and II drug metabolizing enzymes and P-glycoprotein activity in vitro” (BMC Complementary and Alternative Medicine, 2015)
Each block holds one compound with its values, some of them ahead of it.

Legend:
P-gp [1] = biological target: T1, P-gp (Homo sapiens, UniProt P08183); test: Luminogenic P-gp (ATPase) inhibition assay; type: biochemical; settings: specific inhibitor positive control, means ± S.D., read-out: IC50 Inhibitors
T1 construct: purchased Promega V3601
Description: In vitro enzymatic inhibition assays of human Phase I (CYPs) and Phase II (UGTs) DME, and P-gp were done with commercially available luminogenic assay systems. The assay systems were purchased from Promega (Madison, WI, USA), and the microsomes containing the recombinant human CYPs were purchased from Life Technologies (Carlsbad, CA, USA). The microsomes containing human UGT and P-gp were supplied in the luminogenic assay systems (Promega). […] The enzyme reaction was done according to the manufacturer’s instructions.

UGT1A1 = biological target: T2, UGT1A1 (Homo sapiens, UniProt P22309); test: Luminogenic UGT1A1 inhibition assay; type: biochemical; settings: specific inhibitor positive control, means ± S.D., read-out: IC50 Inhibitors
T2 construct: purchased Promega V2120
T2 sequence (P22309 26-533): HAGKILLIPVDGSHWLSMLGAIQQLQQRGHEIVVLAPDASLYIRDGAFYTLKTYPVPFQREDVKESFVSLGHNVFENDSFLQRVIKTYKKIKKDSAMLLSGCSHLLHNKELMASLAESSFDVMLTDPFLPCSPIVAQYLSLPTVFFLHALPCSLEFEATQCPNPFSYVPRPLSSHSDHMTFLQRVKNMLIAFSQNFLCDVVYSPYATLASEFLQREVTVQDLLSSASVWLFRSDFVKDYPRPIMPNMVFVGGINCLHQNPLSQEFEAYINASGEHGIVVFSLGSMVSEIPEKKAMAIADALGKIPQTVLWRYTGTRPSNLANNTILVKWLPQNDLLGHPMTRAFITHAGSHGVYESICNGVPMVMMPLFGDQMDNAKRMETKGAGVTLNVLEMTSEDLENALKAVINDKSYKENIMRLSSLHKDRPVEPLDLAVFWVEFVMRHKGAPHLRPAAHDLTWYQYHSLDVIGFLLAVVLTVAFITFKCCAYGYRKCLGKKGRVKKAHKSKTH
Description: In vitro enzymatic inhibition assays of human Phase I (CYPs) and Phase II (UGTs) DME, and P-gp were done with commercially available luminogenic assay systems. The assay systems were purchased from Promega (Madison, WI, USA), and the microsomes containing the recombinant human CYPs were purchased from Life Technologies (Carlsbad, CA, USA). The microsomes containing human UGT and P-gp were supplied in the luminogenic assay systems (Promega). […]. […]. The enzyme reaction was done according to the manufacturer’s instructions. The luminescent intensity, which is correlated with the enzyme activity, was quantified with a TriStar LB 941 multimode microplate reader (Berthold Technologies, Bad Wildbad, Germany). […]

[2] = tested on: LPS-stimulated RAW264.7 cells; parameters: method as in PMID 23435946, PMID 23935669; settings: cited from earlier work
CYP2C = settings: competitive inhibitor; cited from earlier work
human UGT2B17 = tested on: human UGT2B17; parameters: method as in PMID 22958586; settings: cited from earlier work
P-gp [3] = biological target: T1, P-gp; parameters: method as in PMID 17256728; settings: adriamycin-resisitant human breast cancer cells, MCF-7/ADR; cited from earlier work
UGT1A3 = tested on: UGT1A3; parameters: method as in PMID 23339253; settings: cited from earlier work

T1 sequence (P08183 whole entry): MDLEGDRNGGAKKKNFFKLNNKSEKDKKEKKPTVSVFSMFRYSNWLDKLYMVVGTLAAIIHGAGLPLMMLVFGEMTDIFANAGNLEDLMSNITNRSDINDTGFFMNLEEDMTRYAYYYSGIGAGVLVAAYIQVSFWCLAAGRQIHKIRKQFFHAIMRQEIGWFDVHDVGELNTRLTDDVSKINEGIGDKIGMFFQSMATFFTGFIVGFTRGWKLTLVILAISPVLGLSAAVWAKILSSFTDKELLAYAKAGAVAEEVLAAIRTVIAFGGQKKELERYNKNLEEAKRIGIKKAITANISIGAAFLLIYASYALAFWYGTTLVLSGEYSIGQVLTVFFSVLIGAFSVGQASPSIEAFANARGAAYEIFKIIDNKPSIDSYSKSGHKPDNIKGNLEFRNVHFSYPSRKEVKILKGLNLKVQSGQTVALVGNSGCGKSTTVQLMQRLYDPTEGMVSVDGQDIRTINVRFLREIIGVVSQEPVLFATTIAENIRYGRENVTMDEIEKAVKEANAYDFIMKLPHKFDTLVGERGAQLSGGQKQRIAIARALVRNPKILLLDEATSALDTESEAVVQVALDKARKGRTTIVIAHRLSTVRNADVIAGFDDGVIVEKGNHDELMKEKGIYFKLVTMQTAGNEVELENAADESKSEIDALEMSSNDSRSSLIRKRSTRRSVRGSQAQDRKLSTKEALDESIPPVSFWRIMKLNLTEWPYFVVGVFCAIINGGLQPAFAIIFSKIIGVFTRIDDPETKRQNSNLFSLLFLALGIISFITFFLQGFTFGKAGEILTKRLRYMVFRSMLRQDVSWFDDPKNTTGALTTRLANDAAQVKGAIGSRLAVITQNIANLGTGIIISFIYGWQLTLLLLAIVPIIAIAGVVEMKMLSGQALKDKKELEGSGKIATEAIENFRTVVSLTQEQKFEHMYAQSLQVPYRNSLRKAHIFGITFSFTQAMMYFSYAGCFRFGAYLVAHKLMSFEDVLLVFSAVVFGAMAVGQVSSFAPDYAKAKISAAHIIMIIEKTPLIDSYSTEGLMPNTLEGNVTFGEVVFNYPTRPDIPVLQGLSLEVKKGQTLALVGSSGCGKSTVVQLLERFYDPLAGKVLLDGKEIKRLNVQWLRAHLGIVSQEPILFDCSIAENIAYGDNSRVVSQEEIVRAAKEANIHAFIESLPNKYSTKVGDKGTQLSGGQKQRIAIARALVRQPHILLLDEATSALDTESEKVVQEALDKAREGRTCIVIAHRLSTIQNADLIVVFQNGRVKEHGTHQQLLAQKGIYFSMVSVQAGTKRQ

IC50 (P-gp [1]): 3.4 ± 0.32 µM
Compound: [Na+].[Na+].[Na+].[O]=[V]([O-])([O-])[O-] [Na3VO4]

IC50 (UGT1A1): 180 ± 29.6 µM
Compound: O=C(O)Cc1ccccc1Nc1c(Cl)cccc1Cl [Diclofenac]

Compound: O=c1c(O)c(-c2ccc(O)c(O)c2)oc2cc(O)cc(O)c12 [Quercetin]
median effective doses (ED50), inhibition of NO production [2]: 5.5 µM | Ki (CYP2C): 1.67 µM | inhibition of human UGT2B17 (human UGT2B17): inhibits

Compound: COc1cc([C@H]2OC[C@H]3[C@@H]2CO[C@@H]3c2cc(OC)c(O)c(OC)c2)cc(OC)c1O [syringaresinol]
median effective doses (ED50), inhibition of NO production [2]: 10.0 µM | inhibitory effects on P-gp (P-gp [3]): exhibited inhibitory effects

Compound: schisantherin A
inhibition of UGT1A3 isotype (UGT1A3): potently inhibit

Compound: COc1cc2c(c(OC)c1OC)-c1c(cc(OC)c(OC)c1OC)C[C@H](C)[C@H](C)C2 [deoxyschizandrin]
inhibition of UGT1A3 isotype (UGT1A3): potently inhibit
